In US9512138B2, “Compositions and methods for treating cancer” (The Regents of the University of California, priority 2012, dated 2016):
“Also recorded” adds a separate entry of the source. Where a name gives a salt, the structure may show the parent alone.

What was measured:
[1] = test system: A549, H23, H2122 and H1975 NSCLC cells; assay: MTS cell viability/proliferation assay in NSCLC cell lines, 72 h; assay type: cell-based, human
Protocol: FIG. 5. Parthenolide analogues JD201-JD210 suppress human lung tumor cell proliferation in vitro. A549, H23, H2122 and H1975 NSCLC cells were treated with increasing concentrations of drugs (0.1-100 μM). After 72 h cell viability was assessed by MTS assay. Viable cells are expressed as percentage of vehicle control. P<0.01 (**), versus control group, P<0.05 (*), versus control group. Natural occurring parthenolide (PTL), parthenolide analogues JD201 (DMAPT)-JD210. Parthenolide analogues inhibit female (H1975, H2122) and male (H23, A549) NSCLC cell proliferation.
To determine the effect of parthenolide analogues in lung cancer cell proliferation we tested two male (A549, H23) and two female (H2122, H1975) lung cancer cell lines with increasing concentrations of parthenolide analogues (0.1, 1, 10 and 100 μM) for 72 hours.

[2] = test system: NF-κB/p65 phosphorylation; assay: Western blot of phospho-NF-κB/p65 in H23 cells; assay type: cell-based, human; conditions: for phosphorylation of the p65 subunit of NF-κB: 10 μM, 60 min (FIG. 7); for phosphorylation of NF-κB/p65: 10 µM, 60 min (FIG. 13)
Protocol: FIG. 7. […] After 60 min Western blot were performed using anti-phospho-NF-κB/p65 antibody (Cell Signaling Technology #3031). Membranes were stripped and re-probed with antibody against total NF-κB/p65 (CST #3037).
After 60 min, Western blots were done using anti-phospho-NFκB/p65 antibody (Cell Signaling).
Upon confirming that parthenolide analogues can inhibit NSCLC cell proliferation, induce cell death and enhance the cytotoxicity of chemotherapy, we began to investigate potential cellular mechanisms that may underlie this process. For example, we used Western Blot methods to determine phosphorylation of the p65 subunit of NF-κB. H23 cells were incubated in the presence of vehicle control or 10 μM concentration of the parthenolide derivatives (JD 201, 202, 203, 204) for 60 min. After treatment, cells were collected and homogenized in lysis buffer. Extracts were electrophoresed on 4-20% gradient SDS-PAGE gels and transferred to nitrocellulose membranes. Blots were probed with anti-phospho-NF-κB/p65 and NF-κB/p65 for a loading control.

[3] = test system: MCF7 parent cells without HER2 overexpression; assay: MCF-7 parent xenografts in nude mice; assay type: in vivo; conditions: 28 d treatment
From the text: (§1) Conversion of estrogen-sensitive to -resistant tumors after the start of antiestrogen therapy is a major problem in the clinic (65). This resistance may be due, in part, to enhanced growth factor signaling, a cellular response to antiestrogen treatment that eventually results in increased phosphorylation of ER and/or coactivators, such as AIB1(54). Convergence between growth factor and estrogen signaling may elicit a synergistic feed-forward circuit with more robust cell growth (FIG. 10). It is notable that tumors with HER-2 overexpression tend to respond poorly to antiestrogens (69-72). […] Such clinical data offer further evidence of the biologic interaction between HER-2 and ER. To evaluate the relation of HER-2 to clinical antiestrogen resistance, we used estrogen-responsive, MCF-7 cells with defined levels of ER that were transfected with HER-2 gene (MCF-7/HER-2). MCF-7 cells+HER-2 overexpression and parent MCF-7 cells were grown as xenografts in nude mice as before (28) (FIGS. 11A-11B).
(§2) FIGS. 11A-11B. Overexpression of HER2 gene in MCF7 cells elicits resistance to endocrine therapy in vivo; FIG. 11A: Antiestrogen sensitivity of MCF7 parent cells without HER2 overexpression (control) in vivo. MCF7 cells were inoculated SQ in ovari-ectomized, nude mice primed with estrogen. […] Tumor volumes were recorded. […]

MCF-7/HER2 cells = assay: MCF-7/HER2 xenografts in nude mice; assay type: in vivo
From the text: as §1, §2

Row | Structure (SMILES) | growth inhibition at 10 μM ([1]; 10 μM, A549, H23, H2122, H1975) | growth inhibition at 100 μM ([1]; A549, H23, H2122, H1975) | inhibitory activity relative to other analogues ([1]; FIG. 5, 0.1-100 μM) | phosphorylation of the p65 subunit of NF-κB [2] | phosphorylation of NF-κB/p65 [2] | growth of MCF-7 parent xenografts [3] | antiestrogen sensitivity of MCF-7/HER-2 xenografts (MCF-7/HER2 cells)
1 | C/C1=C/CC[C@@]2(C)OC2[C@H]2OC(=O)[C@@H](CNCc3ccccn3)[C@@H]2CC1.O=C(O)/C=C/C(=O)O (stereo partly drawn) [JD202, (1aR,7aS,8R,10aS,Z)-1a,5-Dimethyl-8-(((pyridin-2-ylmethyl)amino)methyl)-2,3,6,7,7a,8, 10a,10b-octahydrooxireno[2′,3′:9,10]cyclodeca[1,2-b]furan-9(1aH)-one, fumaric acid salt] | Significant growth inhibition | Significant growth inhibition | greater inhibitory activity than compounds 205 and 207 | reduced phosphorylation of the p65 subunit of NF-κB; also recorded: inhibit phosphory-lation of NF-κB/p65 | inhibit phosphorylation of NF-κB/p65 |  | 
2 | C/C1=C\CC[C@@]2(C)O[C@H]2[C@H]2OC(=O)/C(=C\N3CCCCC3)[C@@H]2CC1 [JD205, (1aR,4Z,7aS,8Z,10aS)-1a,5-Dimethyl-8-(piperidin-1-ylmethylene)-2,3,6,7,7a,8,10a,10b-octahydrooxireno[2′,3′:9,10]cyclodeca[1,2-b]furan-9(1aH)-one] |  | Significant growth inhibition |  | inhibit phosphory-lation of NF-κB/p65 | inhibit phosphorylation of NF-κB/p65 |  | 
3 | C/C1=C\CC[C@@]2(C)O[C@H]2[C@H]2OC(=O)[C@@H](CN(C)O)[C@@H]2CC1 [JD207, (1aR,7aS,8R,10aS,Z)-8-((Hydroxy(methyl)amino)methyl)-1a,5-dimethyl-2,3,6,7,7a,8,10a, 10b-octahydrooxireno[2′,3′:9,10]cyclodeca[1,2-b]furan-9(1aH)-one, fumaric acid salt] |  | Significant growth inhibition |  |  |  |  | 
4 | CON(C)C[C@@H]1C(=O)O[C@H]2[C@H]1CC/C(C)=C/CC[C@@]1(C)O[C@@H]21 [JD204, (1aR,7aS,8R,10aS,Z)-8-((Methoxy(methyl)amino)methyl)-1a,5-dimethyl-2,3,6,7,7a,8,10a, 10b-octahydrooxireno[2′,3′:9,10]cyclodeca[1,2-b]furan-9(1aH)-one, fumaric acid salt] |  |  |  | reduced phosphorylation of the p65 subunit of NF-κB; also recorded: inhibit phosphory-lation of NF-κB/p65 | inhibit phosphorylation of NF-κB/p65 |  | 
5 | C[C@]12CC[C@@H]3c4ccc(O)cc4C[C@@H](CCCCCCCCC[S+]([O-])CCCC(F)(F)C(F)(F)F)[C@H]3[C@@H]1CC[C@@H]2O (stereo partly shown) [fulvestrant] |  |  |  |  |  | markedly suppressed | partial sensitivity
